The structures appear in SMILES notation. pIC50: −log10 of the molar value. Counter-ions that a name gives are not always drawn. Like-named read-outs stand apart in the source and are kept apart here. A value given as a limit tells only on which side of the number the result lay.

These results are taken from patent US10899710B2, “Pyridines and their use in the treatment of cancer” (The United States of America, as represented by the …, priority 2015, dated 2021).

One series relates to ACHN. Nature of the series: Growth inhibition GI50, ACHN. It counts as cell-based. As to conditions: Homo sapiens, Renal Cancer. The method, then:
(§1) Cell lines were plated 2000 cells/well in 96-well black optical plates in the presence of 10% FBS media containing 25 nM selenite. The following day cells were treated with various concentrations of the compound of Example 1 (0.1% DMSO final) and incubated for 72 hrs. After the incubation Cell-Quanti Blue reagent was added to each well and incubated for additional 3 hrs. Fluorescence was read ex:530 nm/em:590 nm, and percent of viability was determined using DMSO vehicle and no cell (blank) controls.
(§2) Further results obtained in similar experiments were as indicated below (GI50 refers to concentration of compound yielding 50% growth inhibition; E denotes an exponent to the base 10).

A further series deals with SK-MEL-5. Description: Growth inhibition GI50, SK-MEL-5. It is filed as cell-based. Conditions: Homo sapiens, Melanoma. The method, then:
as §1, §2

The target in series [1] is T1, gluthathione reductase (GR) (Homo sapiens, UniProt P00390).
T1 sequence (P00390 44-522): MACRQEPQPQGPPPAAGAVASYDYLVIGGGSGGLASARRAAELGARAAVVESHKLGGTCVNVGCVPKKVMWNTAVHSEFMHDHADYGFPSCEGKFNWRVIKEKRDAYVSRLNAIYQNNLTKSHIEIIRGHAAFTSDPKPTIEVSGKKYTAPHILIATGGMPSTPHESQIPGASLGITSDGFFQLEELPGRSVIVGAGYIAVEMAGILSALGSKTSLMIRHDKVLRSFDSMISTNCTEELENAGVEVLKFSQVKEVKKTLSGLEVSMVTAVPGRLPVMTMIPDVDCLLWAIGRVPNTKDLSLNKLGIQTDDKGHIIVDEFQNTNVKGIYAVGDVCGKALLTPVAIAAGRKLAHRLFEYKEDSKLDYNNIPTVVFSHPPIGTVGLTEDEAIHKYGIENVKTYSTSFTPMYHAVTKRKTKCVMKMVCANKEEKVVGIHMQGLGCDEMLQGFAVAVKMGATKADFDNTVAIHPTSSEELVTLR
Nature of the series: Inhibition of recombinant GR (GSSG assay). It is filed as biochemical. The method, then: (§3) Small molecule inhibition of recombinant thioredoxin reductase 1 (TrxR1) and gluthathione reductase (GR) was examined in 96-well plate format. 15 nM TrxR1 was incubated in the presence of 250 μM NADPH, 0.1 mg/ml BSA, and various concentrations of the compound of Example 1 (1% DMSO final) in 50 mM Tris (pH 7.5) and 2 mM EDTA buffer for 15 minutes. Following the incubation period, 2.5 mM DTNB was added to each well and the change in O.D. at 412 nm was followed. Percent activity was determined using DMSO vehicle and no TrxR1 (blank) controls. 2 nM GR was incubated in the presence of 250 μM NADPH, 0.1 mg/ml BSA, and various concentrations of compounds (1% DMSO final) in 50 mM Tris (pH 7.5) and 2 mM EDTA buffer for 15 minutes. Following the incubation period, 1 mM GSSG was added to each well and the change in O.D. at 340 nm was followed. Percent activity was determined using DMSO vehicle and no GR (blank) controls.

Another series concerns TK-10. Description: Growth inhibition GI50, TK-10. It is filed as cell-based. As to conditions: Homo sapiens, Renal Cancer. The method, then: as §1, §2
The subject of another series is OVCAR-5. Nature of the series: Growth inhibition GI50, OVCAR-5. It counts as cell-based. As to conditions: Homo sapiens, Ovarian Cancer. Here is the method: as §1, §2
A further series concerns NCI-H322M. Nature of the series: Growth inhibition GI50, NCI-H322M. It counts as cell-based. Conditions: Homo sapiens, Non-Small Cell Lung Cancer. Here is the method: as §1, §2
Another series relates to OVCAR-8. Nature of the series: Growth inhibition GI50, OVCAR-8. It is filed as cell-based. Conditions: Homo sapiens, Ovarian Cancer. Here is the method: as §1, §2
In the next series the test system is NCI-H522. Nature of the series: Growth inhibition GI50, NCI-H522. It is filed as cell-based. As to conditions: Homo sapiens, Non-Small Cell Lung Cancer. Here is the method: as §1, §2
A further series concerns MDA-MB-468. Nature of the series: Growth inhibition GI50, MDA-MB-468. It is filed as cell-based. As to conditions: Homo sapiens, Breast Cancer. Here is the method:
as §1, §2

Another series has as its system SK-MEL-2. Nature of the series: Growth inhibition GI50, SK-MEL-2. It counts as cell-based. As to conditions: Homo sapiens, Melanoma. Here is the method: as §1, §2
Series [2] concerns the target T2, recombinant thioredoxin reductase 1 (TrxR1) (Homo sapiens, UniProt Q16881).
T2 sequence (Q16881 151-649 limits assumed): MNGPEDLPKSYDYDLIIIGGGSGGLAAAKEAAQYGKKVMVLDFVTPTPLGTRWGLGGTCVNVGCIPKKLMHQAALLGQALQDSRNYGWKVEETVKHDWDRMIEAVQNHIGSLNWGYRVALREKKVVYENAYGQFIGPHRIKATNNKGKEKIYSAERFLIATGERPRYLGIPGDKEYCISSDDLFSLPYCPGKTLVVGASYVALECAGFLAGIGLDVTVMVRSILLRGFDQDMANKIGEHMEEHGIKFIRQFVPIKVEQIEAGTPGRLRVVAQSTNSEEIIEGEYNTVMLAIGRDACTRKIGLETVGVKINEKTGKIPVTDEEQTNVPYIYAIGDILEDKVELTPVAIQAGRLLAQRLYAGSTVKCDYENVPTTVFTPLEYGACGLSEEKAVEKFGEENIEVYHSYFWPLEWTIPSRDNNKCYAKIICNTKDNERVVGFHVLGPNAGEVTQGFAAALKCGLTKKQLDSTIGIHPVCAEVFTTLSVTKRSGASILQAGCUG
Nature of the series: Inhibition of recombinant TrxR1 (DTNB assay). It counts as biochemical. As to conditions: read-out: TrxR inhibition (IC50). The method, then:
as §3

Another series relates to SF-268. Description: Growth inhibition GI50, SF-268. It counts as cell-based. As to conditions: Homo sapiens, CNS Cancer. The method, then: as §1, §2
The next series concerns IGROV1. Nature of the series: Growth inhibition GI50, IGROV1. It is filed as cell-based. As to conditions: Homo sapiens, IGROV-1, Ovarian Cancer. Here is the method: as §1, §2
The conditions of series [3]: mouse, in vivo, iv, 10 mg/kg.
Method: Fox Chase male severe combined immunodeficiency (SCID, Charles River, #250) mice were inoculated with 1×10^6 FaDu cells in PBS at a pre-shaved region located at the anterior lateral thoracic wall. After 13 days of growth, tumors were caliper measured and treatments were initiated. […] Mouse health status was monitored daily, weight was measured, and tumor volume was recorded from caliper measurements.
The next series relates to KM12. Nature of the series: Growth inhibition GI50, KM12. Conditions: Homo sapiens, Colon Cancer. It counts as cell-based. Here is the method:
as §1, §2

As a reminder, the GI50 is the concentration that inhibits growth by half. By pIC50 is commonly meant the negative decadic logarithm of the IC50, by convention in mol/L. On to `COc1ccc([N+](=O)[O-])c(S(=O)(=O)c2ccc(Cl)cc2)n1` [Example 1, 2-((4-Chlorophenyl)sulphonyl)-6-methoxy-3-nitropyridine Hydrochloride], for which the GI50 is 2.08 µM in the series on ACHN; 12 µM in the series with SK-MEL-5; 3.57 µM in the series on TK-10; 3.13 µM in the series with OVCAR-5; 20.4 µM in the series with NCI-H322M; 3.67 µM with OVCAR-8. Further, the 50% growth inhibitory concentration (GI50) came out at 1.86 µM with NCI-H522; 1.93 µM in the series with MDA-MB-468; 11.4 µM in the series on SK-MEL-2; 4.57 µM in the series with SF-268; 12.2 µM with IGROV1; 14 µM with KM12. Also, the pIC50 in series [1] (Biological Example 1, 2 nM GR, 15 minutes incubation) was less than 4.00; in [1] (Biological Example 4), less than 4.00; in series [2] (Biological Example 1, 15 nM TrxR1, 15 minutes incubation), 7.92; in [2] (Biological Example 4), 7.68. For the same molecule, the “Signs of general or systemic toxic effects” value in series [3] is recorded as “no overt signs of general or systemic toxic effects”.
